The results in this text go back to patent US6127420A, “L-N^5 -(1-imino-3-alkenyl) ornithine and related compounds and use thereof” (priority 1998, dated 2000).

Read-outs that look alike come from different tables or passages of the source. Where only a bound is given, the exact number is not on record here.

The target of test [1] is T1, nNOS (Rattus norvegicus, UniProt P29476). As to the kind of experiment: Time-dependent inactivation of nNOS (residual activity, oxyhemoglobin oxidation). Format: biochemical. More on the design: made in house; host or cells: stably transfected kidney 293 cells. As to conditions: 25° C.; for inactivation of nNOS relative to 2.0 μM L-NMA (FIG. 2): 0.5 μM L-VNIO vs 2.0 μM L-NMA; for inactivation of nNOS (in words, FIG. 2): under the conditions examined. Here is the method: Nitric oxide-mediated oxidation of oxyhemoglobin was monitored at 401 nm (ε=0.038 μM^-1); the reference cuvette contained a similar mixture without enzyme. Rates were measured and used to calculate the residual activity. The results are shown in FIG. 1 where for ln A/Ao in the legend for the vertical axis, A is the residual activity of NOS at the time indicated and Ao is the activity of NOS at time zero (i.e., initial activity).
T1 sequence (P29476 whole entry): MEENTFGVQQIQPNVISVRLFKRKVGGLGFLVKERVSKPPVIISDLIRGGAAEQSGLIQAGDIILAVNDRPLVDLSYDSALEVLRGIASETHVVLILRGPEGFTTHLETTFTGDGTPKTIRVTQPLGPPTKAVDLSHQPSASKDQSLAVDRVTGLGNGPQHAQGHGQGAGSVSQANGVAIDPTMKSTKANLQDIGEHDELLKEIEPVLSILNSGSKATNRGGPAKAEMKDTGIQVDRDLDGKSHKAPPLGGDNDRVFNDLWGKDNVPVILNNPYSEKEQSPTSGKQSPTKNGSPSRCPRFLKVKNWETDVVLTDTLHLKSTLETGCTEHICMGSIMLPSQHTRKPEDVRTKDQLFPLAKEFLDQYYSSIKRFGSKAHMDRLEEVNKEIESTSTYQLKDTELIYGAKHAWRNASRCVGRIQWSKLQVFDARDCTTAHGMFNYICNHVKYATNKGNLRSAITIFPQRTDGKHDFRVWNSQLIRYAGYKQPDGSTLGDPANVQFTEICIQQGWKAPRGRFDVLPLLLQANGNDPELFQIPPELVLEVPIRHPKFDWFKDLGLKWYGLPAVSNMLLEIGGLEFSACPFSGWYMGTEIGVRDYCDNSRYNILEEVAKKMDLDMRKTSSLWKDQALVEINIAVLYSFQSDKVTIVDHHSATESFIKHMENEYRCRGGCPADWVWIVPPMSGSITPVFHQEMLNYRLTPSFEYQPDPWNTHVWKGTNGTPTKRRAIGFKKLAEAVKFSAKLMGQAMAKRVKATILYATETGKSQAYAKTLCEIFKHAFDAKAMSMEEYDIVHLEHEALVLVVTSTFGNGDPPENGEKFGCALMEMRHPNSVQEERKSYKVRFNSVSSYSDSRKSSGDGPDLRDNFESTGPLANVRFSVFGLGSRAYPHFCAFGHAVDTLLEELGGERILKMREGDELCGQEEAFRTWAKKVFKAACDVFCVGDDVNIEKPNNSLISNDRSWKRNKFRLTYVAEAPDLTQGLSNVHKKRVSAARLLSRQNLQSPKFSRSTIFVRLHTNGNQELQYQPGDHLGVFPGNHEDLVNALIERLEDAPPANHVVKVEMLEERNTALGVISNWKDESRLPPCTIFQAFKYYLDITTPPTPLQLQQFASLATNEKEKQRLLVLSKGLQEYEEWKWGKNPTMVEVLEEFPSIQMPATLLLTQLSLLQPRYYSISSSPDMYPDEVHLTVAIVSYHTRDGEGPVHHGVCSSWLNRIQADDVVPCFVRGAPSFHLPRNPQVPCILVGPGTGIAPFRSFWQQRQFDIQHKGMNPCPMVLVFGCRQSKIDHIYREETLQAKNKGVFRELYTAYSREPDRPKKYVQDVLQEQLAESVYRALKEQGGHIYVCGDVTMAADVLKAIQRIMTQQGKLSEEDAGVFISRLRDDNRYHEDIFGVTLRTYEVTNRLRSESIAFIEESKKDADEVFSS
Determinations were carried out as described in Example XI. The results are shown in FIG. 2 where in (A/Ao) means the same as in Example XI.
Testing was carried out to compare inactivation by L-VNIO of the nNOS, eNOS and iNOS isoforms. Determinations were carried out as set forth in Example XI except that the reaction mixtures for iNOS omitted CaCl2 and calmodulin.

The target of test [2] is T2, eNOS (Bos taurus, UniProt P29473). As to conditions: for eNOS Ki/Km: Ki divided by Km for L-arginine.
T2 sequence (P29473 2-1205): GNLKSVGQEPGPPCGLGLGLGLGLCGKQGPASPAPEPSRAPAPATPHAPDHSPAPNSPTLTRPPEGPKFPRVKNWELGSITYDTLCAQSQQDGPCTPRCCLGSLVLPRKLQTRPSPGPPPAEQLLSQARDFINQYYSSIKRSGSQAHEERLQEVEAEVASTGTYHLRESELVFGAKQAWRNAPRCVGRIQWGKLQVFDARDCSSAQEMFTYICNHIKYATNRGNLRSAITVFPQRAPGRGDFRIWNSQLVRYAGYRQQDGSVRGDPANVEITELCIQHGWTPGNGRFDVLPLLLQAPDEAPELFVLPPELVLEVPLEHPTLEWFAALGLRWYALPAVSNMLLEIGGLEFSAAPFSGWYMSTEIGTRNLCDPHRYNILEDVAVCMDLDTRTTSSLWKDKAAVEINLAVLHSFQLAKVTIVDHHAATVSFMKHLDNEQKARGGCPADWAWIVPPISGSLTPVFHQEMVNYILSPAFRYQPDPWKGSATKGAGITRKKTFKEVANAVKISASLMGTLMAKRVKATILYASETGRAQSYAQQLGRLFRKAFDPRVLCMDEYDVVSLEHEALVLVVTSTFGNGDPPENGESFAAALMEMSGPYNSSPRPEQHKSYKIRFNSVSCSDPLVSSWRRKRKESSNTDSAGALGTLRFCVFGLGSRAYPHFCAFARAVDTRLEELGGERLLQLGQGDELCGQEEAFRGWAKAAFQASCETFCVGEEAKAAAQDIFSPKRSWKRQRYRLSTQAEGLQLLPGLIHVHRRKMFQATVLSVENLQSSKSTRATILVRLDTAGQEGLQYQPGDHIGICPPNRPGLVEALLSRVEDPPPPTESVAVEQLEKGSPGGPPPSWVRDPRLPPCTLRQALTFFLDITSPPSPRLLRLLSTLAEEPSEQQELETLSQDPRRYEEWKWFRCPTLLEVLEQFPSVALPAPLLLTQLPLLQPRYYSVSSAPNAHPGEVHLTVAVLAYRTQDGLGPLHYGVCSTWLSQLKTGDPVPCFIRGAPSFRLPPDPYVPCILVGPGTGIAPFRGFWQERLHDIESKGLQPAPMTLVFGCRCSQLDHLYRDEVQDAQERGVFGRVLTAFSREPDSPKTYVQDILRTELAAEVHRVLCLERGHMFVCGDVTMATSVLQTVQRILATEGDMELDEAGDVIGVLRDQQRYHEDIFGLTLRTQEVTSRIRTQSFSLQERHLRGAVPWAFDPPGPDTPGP
Experimental: (§1) For determination of Ki of a compound, activity of NOS is determined by monitoring the conversion of L-[^14 C]arginine to L-[^14 C]citrulline. […] Reaction mixtures for iNOS are similar, but CaCl2 and calmodulin are omitted. Reaction is initiated by the addition of the enzyme, and the solutions are maintained at 25° C. for 4 min. Reaction mixtures are quenched by the addition of 200 μl of stop buffer containing 100 mM Na^+ Hepes buffer, pH 5.5, and 5 mM ethylene glycol bis (β-aminoethylether)-N,N,N',N"-tetraacetic acid (EGTA). The resulting samples are heated in a boiling water bath for 1 minute and chilled and centrifuged. A portion (225 μl) of the supernatant is applied to small Dowex 50 columns (Na^+ form, 1 ml resin), and the product L-[^14 C]citrulline is eluted with 2 ml of water and quantified by liquid scintillation counting.
Test [3] deals with T2, eNOS. As to the kind of experiment: Time-dependent inactivation of eNOS (residual activity, oxyhemoglobin oxidation). Format: biochemical, bovine. To be noted: 25° C.
Test [4] deals with T1, nNOS. To be noted: for nNOS Ki/Km: Ki divided by Km for L-arginine; for selectivity for nNOS (in words): vs eNOS (and iNOS for L-VNIO), on a Ki/Km basis.
Experimental: as §1
Test [5] addresses T3, iNOS (Mus musculus, UniProt P29477). Put plainly: Time-dependent inactivation of iNOS (residual activity, oxyhemoglobin oxidation; CaCl2 and calmodulin omitted). Format: biochemical. As to conditions: up to 100 μM L-VNIO, 25° C.
For test [6], the system named is female Sprague-Dawley CFY rats. Put plainly: Stroke volume after carotid artery ligation in rats. Format: in vivo, rat. To be noted: 25 mg/kg i.v. bolus 30 minutes after occlusion; histology 24 hours after artery occlusion. Here is the method: Both carotid arteries are ligated in two groups of female Sprague-Dawley CFY rats. After 10 minutes, ligations are released and flow is again allowed.
In the case of one group, L-VNIO (25 mg/kg) is administered by bolus injection through a venous catheter 30 minutes after occlusion of the arteries. In the case of the other group, no therapeutic agent is administered.

In test [7] the target is T2, eNOS. Put plainly: biochemical.
Experimental: as §1
Test [8] addresses T3, iNOS. As to conditions: for iNOS Ki/Km: Ki divided by Km for L-arginine.
Experimental: as §1
Test [9] in a line: Migraine headache treatment of a patient with L-VNIO tablets. Format: in vivo, human. How it is done:
A person with a history of migraine headaches is provided with tablets containing 500 mg of L-VNIO. They are instructed to take one tablet at the first sign of migraine headache development and to take a second table 60 minutes later if the headache continues to develop. When a right-sided migraine headache begins, they take one tablet as instructed, and headache pain begins to decrease within 15 minutes and is absent within 45 minutes. […] The women therefore takes a second table as instructed and headache pain is absent within 30 minutes of taking the second tablet.

Test [10] has as its target T3, iNOS. As to the kind of experiment: biochemical.
Experimental: as §1
Test [11] addresses T1, nNOS. As to the kind of experiment: biochemical.
Experimental: as §1
The mark [12] stands for this setting: first migraine, one 500 mg tablet.

T3 sequence (P29477 whole entry): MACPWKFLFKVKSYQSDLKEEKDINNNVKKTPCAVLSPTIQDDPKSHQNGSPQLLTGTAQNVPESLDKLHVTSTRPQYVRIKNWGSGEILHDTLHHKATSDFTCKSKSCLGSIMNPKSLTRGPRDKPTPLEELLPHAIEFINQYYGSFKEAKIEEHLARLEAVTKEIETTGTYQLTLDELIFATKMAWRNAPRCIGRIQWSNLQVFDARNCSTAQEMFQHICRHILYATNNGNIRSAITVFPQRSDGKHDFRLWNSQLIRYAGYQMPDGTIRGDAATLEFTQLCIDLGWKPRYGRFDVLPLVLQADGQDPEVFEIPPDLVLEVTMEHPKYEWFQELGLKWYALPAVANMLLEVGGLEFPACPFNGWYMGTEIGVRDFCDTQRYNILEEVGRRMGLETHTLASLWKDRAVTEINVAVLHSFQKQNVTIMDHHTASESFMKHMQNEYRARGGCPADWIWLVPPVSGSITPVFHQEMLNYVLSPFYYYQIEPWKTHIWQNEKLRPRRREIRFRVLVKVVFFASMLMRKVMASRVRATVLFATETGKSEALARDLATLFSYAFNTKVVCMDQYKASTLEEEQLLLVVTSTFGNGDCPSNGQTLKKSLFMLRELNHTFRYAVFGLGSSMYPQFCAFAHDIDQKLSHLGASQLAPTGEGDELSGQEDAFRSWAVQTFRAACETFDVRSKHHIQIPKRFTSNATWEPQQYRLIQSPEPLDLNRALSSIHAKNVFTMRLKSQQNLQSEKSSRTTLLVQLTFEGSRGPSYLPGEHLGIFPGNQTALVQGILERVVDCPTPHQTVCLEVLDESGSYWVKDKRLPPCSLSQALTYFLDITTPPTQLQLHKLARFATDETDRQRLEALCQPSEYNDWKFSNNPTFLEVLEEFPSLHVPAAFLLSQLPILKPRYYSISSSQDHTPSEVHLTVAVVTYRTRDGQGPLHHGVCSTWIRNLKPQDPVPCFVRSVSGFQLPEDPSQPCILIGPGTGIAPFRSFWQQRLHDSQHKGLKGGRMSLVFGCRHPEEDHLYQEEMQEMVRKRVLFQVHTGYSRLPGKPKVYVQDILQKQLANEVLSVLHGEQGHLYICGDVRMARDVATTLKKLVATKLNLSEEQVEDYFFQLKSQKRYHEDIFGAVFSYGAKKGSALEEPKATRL

For the molecule `CNC(=N)NCCC[C@H](N)C(=O)O` [L-NMA, N^ω -methyl-L-arginine, reference compound], on nNOS [1], the “inactivation of nNOS relative to 2.0 μM L-NMA (FIG. 2)” value was “comparable”.

In the case of `C=CCC(=N)NCCC[C@H](N)C(=O)O` [L-VNIO, N^5-(1-imino-3-butenyl)-L-ornithine], the “eNOS Ki/Km” value on eNOS [2] is recorded as 3.33. Moreover, the “inhibition of eNOS (in words)” value against eNOS [2] (conclusion from Table I) is recorded as “poor inhibitor of eNOS”. At nNOS [1], the “inactivation of nNOS relative to 2.0 μM L-NMA (FIG. 2)” value is reported as “comparable with that seen with 2.0 μM L-NMA”. Moreover, the “inactivation of nNOS relative to 10 μM L-NIO (FIG. 2)” value at nNOS [1] (0.5 μM L-VNIO vs 10 μM L-NIO) is reported as “greater than that seen with 10 μM L-NIO”. Also, the “inactivation of nNOS (FIG. 3)” value at nNOS [1] (0.5 μM L-VNIO) is on record as “strong inactivator of nNOS”. The “inactivation of nNOS (FIG. 1)” value at nNOS [1] (L-VNIO 0.1-0.8 μM, D-VNIO 100 μM) is recorded as “caused a first-order inactivation of nNOS”. The “inactivation of eNOS (FIG. 3)” value at eNOS [3] (10 μM L-VNIO) was “relatively weak inactivator of eNOS”. Moreover, on eNOS [3] (20-fold higher concentration of L-VNIO: 10 μM eNOS vs 0.5 μM nNOS), the “rate of inactivation of eNOS compared with nNOS (FIG. 3)” value is given as “does not match that seen with nNOS”. In addition, on nNOS [4], the “nNOS Ki/Km” value was 0.07 and the “selectivity for nNOS (in words)” value is “selective inhibitor of nNOS”. Besides, on nNOS [4] (conclusion from Table I), the “inhibition of nNOS (in words)” value is listed as “potent inhibitor of nNOS”. At nNOS [4] (read-out: nNOS Ki, rat nNOS, 25° C., pH 7.4, initial rate conditions, duplicates agreed within ±5%), the Ki turned out to be 0.1 µM. The “inactivation of iNOS (FIG. 3)” value on iNOS [5] is given as “does not inactivate iNOS”. In addition, the “stroke volume compared to group receiving no treatment” value in [6] is listed as “significant reduction in stroke volume”. The molecule further registered a Ki on eNOS [7] of 12 µM. For the same molecule, at iNOS [8], the “iNOS Ki/Km” value came out at 4.80. Moreover, the “inhibition of iNOS (in words)” value against iNOS [8] (conclusion from Table I) is “poor inhibitor of eNOS and INOS”. The Ki on iNOS [8] (read-out: iNOS Ki, mouse iNOS, 25° C., pH 7.4, initial rate conditions, duplicates agreed within ±5%) turned out to be 60 µM. Also, in [9] (setting [12]), the “time until headache pain begins to decrease” value was not above 15 min and the “time until headache pain is absent” value is not above 45 min. In addition, the “pain relief by the first tablet, following day” value in test [9] (following day, first 500 mg tablet) was “pain is not fully alleviated by the first tablet”. Also, the “time until headache pain is absent after the second tablet” value in test [9] (following day, second 500 mg tablet 60 minutes after first) is not above 30 min.

Regarding `CCC(=N)NCCC[C@H](N)C(=O)O` [methyl-L-NIO], the “inactivation of nNOS (in words, FIG. 2)” value on nNOS [1] was “much weaker inactivator of nNOS”. Moreover, the inhibition constant (Ki) turned out to be 9.5 µM on iNOS [10] and 10 µM on eNOS [7].

In the case of `CC(=N)NCCC[C@H](N)C(=O)O` [L-NIO], the inhibition constant Ki at iNOS [10] and at eNOS [7] was 3.9 µM each time.

In the case of `CCCC(=N)NCCC[C@H](N)C(=O)O` [ethyl-L-NIO, reference compound], the “eNOS Ki/Km” value on eNOS [2] is 5.00. Besides, the “inactivation of nNOS (in words, FIG. 2)” value on nNOS [1] is “does not inactivate nNOS”. Moreover, the “nNOS Ki/Km” value at nNOS [4] worked out at 3.79. The “selectivity for nNOS (in words)” value on nNOS [4] is given as “do not show biologically significant selectivity for nNOS over eNOS”. Besides, the Ki was found to be 12 µM at iNOS [10], 5.3 µM on nNOS [11] and 18 µM on eNOS [7]. Moreover, the “iNOS Ki/Km” value at iNOS [8] was 0.96. In addition, the “selectivity for iNOS over nNOS and eNOS” value at iNOS [8] (on a Ki/Km basis) was in the range of 3 to 5 fold.

The term Ki denotes the dissociation constant of the complex between target and ligand, obtained from inhibition or displacement.
